# Patent publication US11384078B2, “5,6-fused-bicyclic compounds and compositions for the treatment of parasitic diseases” (NOVARTIS AG, priority 2017, dated 2022)
# Like-named read-outs stand apart in the source and are kept apart here.
# What was measured:
# Type in all cases: cell-based
# [1] = test system: Leishmania donovani axenic amastigote; test: In vitro assay for growth inhibition of Leishmania donovani axenic amastigote (Cell TiterGlo luminescence); conditions: Leishmania donovani, L. donovani axenic amastigotes in vitro; read-out: L. donovani amastigotes EC50
# Procedure, shortened: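 Axenic L. donovani amastigotes (9600/well) grown at 37 °C, 5% CO2 in supplemented RPMI 1640, pH 5.5, with compound added from DMSO. After two days, viability read by CellTiter-Glo luminescence against DMSO and control-compound wells.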
# [2] = test system: L. donovani HU3 strain in mouse peritoneal macrophages; test: Assay for inhibition of parasitemia of Leishmania donovani in mouse macrophages (SYBR Green nuclei count, high-content imaging); conditions: Leishmania donovani, Peritoneal macrophage, read-out: L. donovani in Mouse Macrophages EC50
# Procedure, shortened: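 Peritoneal macrophages from uninfected BALB/c mice were infected for 24 h with spleen-derived L. donovani HU3 (4×10^5 parasites per 2×10^4 macrophages), then cultured with compound for 5 days at 37° C, 5% CO2. After fixation and permeabilization, parasite nuclei were stained with SYBR Green and counted by high-content imaging.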
# [3] = test system: Trypanosoma cruzi amastigotes cultured in 3T3 fibroblast cells; test: Assay for growth inhibition of kinetoplastid parasite Trypanosoma cruzi (beta-galactosidase Tulahuen strain, CPRG readout); conditions: Trypanosoma cruzi, T. cruzi amastigotes in 3T3 fibroblast cells, read-out: Buckner infectious T. cruzi EC50
# Procedure, shortened: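 3T3 fibroblasts (1,000 cells/well) plated overnight, treated with compound in DMSO, then infected with 10,000 Lac-Z-expressing Tulahuen trypomastigotes. After 6 days, 0.6 mM CPRG with 0.6% NP-40 added for 2 h at room temperature; absorbance gives relative intracellular amastigote numbers. Benznidazole and nifurtimox serve as positive controls.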
# [4] = test system: Trypanosoma brucei brucei (Lister 427) strain; test: Assay for growth inhibition against Trypanosoma brucei brucei (Cell TiterGlo ATP luminescence); conditions: Trypanosoma brucei, T. brucei brucei (Lister 427); read-out: T. Brucei (HAT) EC50
# Procedure, shortened: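 T. b. brucei Lister 427 grown in HMI-9 with 10% FBS and 10% serum plus, seeded at 10,000 parasites/mL with 10-point threefold compound dilutions in duplicate, 37 °C for 2 days. Viability read as ATP luminescence 30 min after Cell TiterGlo; IC50 versus untreated controls.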
# [5] = L. donovani in mouse peritoneal macrophages
Structure (SMILES),EC50 [1],"EC50 [2, 5]",EC50 ([3]; Fibroblast),EC50 [4],EC50 [2],EC50 [3]
"Cc1nc(C)c(C(=O)Nc2ccc(F)c(-n3cc4cc(C5CCC5)cnc4n3)c2)o1 [Compound 101, N-(3-{5-cyclobutyl-2H-pyrazolo[3,4-b]pyridin-2-yl}-4-fluorophenyl)-2,4-dimethyl-1,3-oxazole-5-carboxamide]",0.3 µM,0.31 µM,0.13 µM,0.15 µM,,
"Cc1nc(C)c(C(=O)Nc2ccc(F)c(-n3cc4cc(C(C)(C)C)cnc4n3)c2)o1 [Compound 103, N-(3-{5-tert-butyl-2H-pyrazolo[3,4-b]pyridin-2-yl}-4-fluorophenyl)-2,4-dimethyl-1,3-oxazole-5-carboxamide]",0.68 µM,0.4 µM,0.15 µM,0.31 µM,,
"CCC(C)(C)c1cnc2nn(-c3cc(NC(=O)c4oc(C)nc4C)ccc3F)cc2c1 [Compound 104, N-{4-fluoro-3-[5-(2-methylbutan-2-yl)-2H-pyrazolo[3,4-b]pyridin-2-yl]phenyl}-2,4-dimethyl-1,3-oxazole-5-carboxamide]",3.1 µM,2.1 µM,1.2 µM,4.2 µM,,
"CCC(C)c1cnc2nn(-c3cc(NC(=O)c4oc(C)nc4C)ccc3F)cc2c1 (stereo not shown) [Compound 105, N-{3-[5-(butan-2-yl)-2H-pyrazolo[3,4-b]pyridin-2-yl]-4-fluorophenyl}-2,4-dimethyl-1,3-oxazole-5-carboxamide]",0.72 µM,0.89 µM,0.43 µM,0.38 µM,,
"Cc1nc(C)c(C(=O)Nc2ccc(F)c(-n3cc4cc(CC5CCC5)cnc4n3)c2)o1 [Compound 106, N-{3-[5-(cyclobutylmethyl)-2H-pyrazolo[3,4-b]pyridin-2-yl]-4-fluorophenyl}-2,4-dimethyl-1,3-oxazole-5-carboxamide]",0.13 µM,0.085 µM,0.061 µM,> 50 µM,,
"Cc1nc(C)c(C(=O)Nc2ccc(F)c(-n3cc4cc(CCC(C)C)cnc4n3)c2)o1 [Compound 107, N-{4-fluoro-3-[5-(3-methylbutyl)-2H-pyrazolo[3,4-b]pyridin-2-yl]phenyl}-2,4-dimethyl-1,3-oxazole-5-carboxamide]",0.22 µM,0.13 µM,0.077 µM,0.088 µM,,
"Cc1nc(C)c(C(=O)Nc2ccc(F)c(-n3cc4cc(-c5ccccn5)cnc4n3)c2)o1 [Compound 108, N-{4-fluoro-3-[5-(pyridin-2-yl)-2H-pyrazolo[3,4-b]pyridin-2-yl]phenyl}-2,4-dimethyl-1,3-oxazole-5-carboxamide]",0.0033 µM,0.004 µM,0.0038 µM,< 0.023 µM,,
"CC(C)OC(=O)Nc1cnc2nn(-c3cc(NC(=O)c4ccco4)ccc3F)cc2c1 [Compound 123, propan-2-yl N-{2-[2-fluoro-5-(furan-2-amido)phenyl}-2H-pyrazolo[3,4-b]pyridin-5-yl}carbamate]",0.0094 µM,0.0089 µM,0.0044 µM,< 0.023 µM,,
"O=C(Nc1ccc(F)c(-n2cc3cc(Br)cnc3n2)c1)N1CC(F)(F)C1 [Compound 125, N-(3-(5-bromo-2H-pyrazolo[3,4-b]pyridin-2-yl)-4-fluorophenyl)-3,3-difluoroazetidine-1-carboxamide]",0.044 µM,,,< 0.023 µM,0.031 µM,0.034 µM
"O=C(Nc1ccc(F)c(-n2cc3cc(Br)cnc3n2)c1)N1CC(F)C1 [Compound 126, N-(3-(5-bromo-2H-pyrazolo[3,4-b]pyridin-2-yl)-4-fluorophenyl)-3-fluoroazetidine-1-carboxamide]",0.024 µM,,,< 0.023 µM,0.014 µM,0.014 µM
"O=C(Nc1ccc(F)c(-n2cc3cc(Br)cnc3n2)c1)N1CC[C@@H](F)C1 [Compound 127, (R)—N-(3-(5-bromo-2H-pyrazolo[3,4-b]pyridin-2-yl)-4-fluorophenyl)-3-fluoropyrrolidine-1-carboxamide]",0.025 µM,0.017 µM,0.0068 µM,< 0.023 µM,,
"Cc1nc(C)c(C(=O)Nc2ccc(F)c(-n3cc4cc(Br)cnc4n3)c2)o1 [Compound 128, N-(3-(5-bromo-2H-pyrazolo[3,4-b]pyridin-2-yl)-4-fluorophenyl)-2,4-dimethyloxazole-5-carboxamide]",0.38 µM,0.19 µM,0.14 µM,0.18 µM,,
"O=C(Nc1ccc(F)c(-n2cc3cc(Br)cnc3n2)c1)N1CCC1 [Compound 129, N-(3-(5-bromo-2H-pyrazolo[3,4-b]pyridin-2-yl)-4-fluorophenyl)azetidine-1-carboxamide]",0.029 µM,,,< 0.023 µM,0.031 µM,0.015 µM
"O=C(Nc1ccc(F)c(-n2cc3cc(Br)cnc3n2)c1)c1ccco1 [Compound 130, N-(3-(5-bromo-2H-pyrazolo[3,4-b]pyridin-2-yl)-4-fluorophenyl)furan-2-carboxamide]",0.19 µM,0.16 µM,0.036 µM,0.04 µM,,
"O=C(Nc1ccc(F)c(-n2cc3cc(N4CCCC4)cnc3n2)c1)N1CC(F)C1 [Compound 131, 3-fluoro-N-{4-fluoro-3-[5-(pyrrolidin-1-yl)-2H-pyrazolo[3,4-b]pyridin-2-yl]phenyl}azetidine-1-carboxamide]",0.007 µM,0.0051 µM,0.0052 µM,< 0.023 µM,,
"O=C(Nc1ccc(F)c(-n2cc3cc(N4CCOCC4)cnc3n2)c1)N1CC(F)C1 [Compound 132, 3-fluoro-N-{4-fluoro-3-[5-(morpholin-4-yl)-2H-pyrazolo[3,4-b]pyridin-2-yl]phenyl}azetidine-1-carboxamide]",0.011 µM,0.007 µM,0.013 µM,< 0.023 µM,,
"CN(C)c1cnc2nn(-c3cc(NC(=O)N4CC[C@@H](F)C4)ccc3F)cc2c1 [Compound 133, (3R)-N-{3-[5-(dimethylamino)-2H-pyrazolo[3,4-b]pyridin-2-yl]-4-fluorophenyl}-3-fluoropyrrolidine-1-carboxamide]",0.012 µM,0.008 µM,0.0059 µM,< 0.023 µM,,
"O=C(Nc1ccc(F)c(-n2cc3cc(N4CCCC4)cnc3n2)c1)N1CC[C@@H](F)C1 [Compound 134, (3R)-3-fluoro-N-{4-fluoro-3-[5-(pyrrolidin-1-yl)-2H-pyrazolo[3,4-b]pyridin-2-yl]phenyl}pyrrolidine-1-carboxamide]",0.023 µM,0.0054 µM,0.02 µM,< 0.023 µM,,
"O=C(Nc1ccc(F)c(-n2cc3cc(N4CCOCC4)cnc3n2)c1)N1CC[C@@H](F)C1 [Compound 135, (3R)-3-fluoro-N-{4-fluoro-3-[5-(morpholin-4-yl)-2H-pyrazolo[3,4-b]pyridin-2-yl]phenyl}pyrrolidine-1-carboxamide]",0.0046 µM,0.0086 µM,0.0066 µM,< 0.023 µM,,
CC(C)OC(=O)Nc1cnc2nn(-c3cc(NC(=O)N4CC[C@@H](F)C4)ccc3F)cc2c1 [Compound 136],0.03 µM,0.019 µM,0.17 µM,< 0.023 µM,,
"O=C(Nc1ccc(F)c(-n2cc3cc(N4CCOCC4)cnc3n2)c1)N1CCC1 [Compound 137, N-{4-fluoro-3-[5-(morpholin-4-yl)-2H-pyrazolo[3,4-b]pyridin-2-yl]phenyl}azetidine-1-carboxamide]",0.0088 µM,0.006 µM,0.0051 µM,< 0.023 µM,,
"CC(C)OC(=O)Nc1cnc2nn(-c3cc(NC(=O)N4CCC4)ccc3F)cc2c1 [Compound 138, propan-2-yl N-(2-{5-[(azetidine-1-carbonyl)amino]-2-fluorophenyl}-2H-pyrazolo[3,4-b]pyridin-5-yl)carbamate]",0.011 µM,0.0057 µM,0.047 µM,< 0.023 µM,,
"CNc1cnc2nn(-c3cc(NC(=O)c4ccco4)ccc3F)cc2c1 [Compound 139, N-{4-fluoro-3-[5-(methylamino)-2H-pyrazolo[3,4-b]pyridin-2-yl]phenyl}furan-2-carboxamide]",0.74 µM,0.32 µM,3 µM,< 0.023 µM,,
"CN(C)c1cnc2nn(-c3cc(NC(=O)c4ccco4)ccc3F)cc2c1 [Compound 140, N-{3-[5-(dimethylamino)-2H-pyrazolo[3,4-b]pyridin-2-yl]-4-fluorophenyl}furan-2-carboxamide]",0.1 µM,0.041 µM,0.023 µM,< 0.023 µM,,
"O=C(Nc1ccc(F)c(-n2cc3cc(N4CCCC4)cnc3n2)c1)c1ccco1 [Compound 141, N-{4-fluoro-3-[5-(pyrrolidin-1-yl)-2H-pyrazolo[3,4-b]pyridin-2-yl]phenyl}furan-2-carboxamide]",0.08 µM,0.012 µM,0.022 µM,< 0.023 µM,,
